The values below come from US7799775B2, “Pyrimidine derivatives” (ASKA Pharmaceutical Co., Ltd., priority 2004, dated 2010).

The target in experiment [1] is T1, human 5-HT1A receptor (Homo sapiens, UniProt P08908).
T1 construct: purchased Packard Bioscience; host or cells: CHO cells (membrane preparation)
T1 sequence (P08908 1-422): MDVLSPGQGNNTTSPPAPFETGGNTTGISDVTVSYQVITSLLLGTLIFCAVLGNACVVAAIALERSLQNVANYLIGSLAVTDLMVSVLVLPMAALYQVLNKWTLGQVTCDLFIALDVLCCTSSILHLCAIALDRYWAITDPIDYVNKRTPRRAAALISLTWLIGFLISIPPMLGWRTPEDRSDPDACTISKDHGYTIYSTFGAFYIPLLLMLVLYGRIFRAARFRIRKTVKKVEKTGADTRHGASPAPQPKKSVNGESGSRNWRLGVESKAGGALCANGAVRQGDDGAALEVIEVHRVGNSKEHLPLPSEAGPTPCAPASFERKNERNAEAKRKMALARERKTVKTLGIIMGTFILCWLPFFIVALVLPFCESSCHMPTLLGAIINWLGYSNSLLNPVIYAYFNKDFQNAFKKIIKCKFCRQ
Briefly: Affinity measurement of the compounds to human 5-HT1A receptor (in vitro), [3H]8-OH-DPAT binding. To be noted: test compound 100 nmols/L, [3H]8-OH-DPAT 0.25 nmols/L, CHO cell membrane expressing human 5-HT1A receptor; for inhibition at 0.1 µM: read-out: Percent Inhibition (%) on Each Receptor's Binding at 10^−7M, 5-HT1A. The method, boiled down:
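Membranes from CHO cells expressing human 5-HT1A were incubated 60 min at 27 °C with 0.25 nmol/L [3H]8-OH-DPAT and compound in Tris/MgSO4/EDTA/ascorbate buffer, pH 7.4. Bound radioactivity was collected on PEI-soaked GF/C filters and counted; percent inhibition was corrected for non-specific binding defined with 10 μmol/L 8-OH-DPAT.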

For experiment [2], the target named is T2, human 5-HT3 receptor (Homo sapiens, UniProt P46098).
T2 construct: purchased BIOLINKS K.K; host or cells: HEK-293 cells (membrane preparation)
T2 sequence (P46098 24-478): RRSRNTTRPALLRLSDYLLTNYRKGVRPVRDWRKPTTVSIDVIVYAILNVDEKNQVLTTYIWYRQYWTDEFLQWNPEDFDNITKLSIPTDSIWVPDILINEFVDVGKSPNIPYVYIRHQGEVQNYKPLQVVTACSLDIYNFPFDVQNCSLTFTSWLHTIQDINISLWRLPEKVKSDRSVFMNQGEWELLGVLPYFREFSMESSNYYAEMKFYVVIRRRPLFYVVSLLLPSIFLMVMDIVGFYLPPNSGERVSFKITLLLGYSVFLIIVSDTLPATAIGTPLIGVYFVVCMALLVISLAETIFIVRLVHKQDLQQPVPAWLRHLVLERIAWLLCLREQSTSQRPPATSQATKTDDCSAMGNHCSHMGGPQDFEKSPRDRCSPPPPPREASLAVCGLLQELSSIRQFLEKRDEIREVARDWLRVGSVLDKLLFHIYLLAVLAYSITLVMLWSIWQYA
Briefly: Measurement of affinity to human 5-HT3 receptor (in vitro), [3H]BRL-43694 binding. The conditions noted are these: test compound 100 nmols/L, [3H]BRL-43694 0.5 nmols/L, HEK-293 cell membrane expressing human 5-HT3 receptor; for inhibition at 0.1 µM: read-out: Percent Inhibition (%) on Each Receptor's Binding at 10^−7M, 5-HT3. The method, boiled down:
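Membranes from HEK-293 cells expressing the receptor were incubated with 0.5 nmol/L radioligand and compound for 60 min at 25 °C in Tris/MgCl2/EDTA buffer, pH 7.5. Bound radioactivity was collected by filtration and counted. Percent inhibition was corrected for non-specific binding defined with 10 μmol/L tropisetron; compounds were tested at 100 nmol/L.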

On to `Nn1c(NCCCN2CCN(c3ccc4ccccc4n3)CC2)nc2c(c1=O)CCCC2` [Example 6-2, 3-amino-2-[3-(4-quinolin-2-ylpiperazin-1-yl)propylamino]-5,6,7,8-tetrahydro-3H-quinazolin-4-one], for which the inhibition at 0.1 µM in experiment [1] was found to be 92.4%; in experiment [2] it was 39.3%.
For `COc1ccc2ccnc(N3CCN4CCC[C@@H]4C3)c2c1` [Production Example 77, 1-((8aR)-octahydropyrrolo[1,2-a]pyrazin-2-yl)-7-methoxyisoquinoline], in that order: 98.9% and 97.9%.
For `COc1cc2nc(CCCCN3CCN(c4ccc5ccccc5n4)CC3)n(C)c(=O)c2cc1OC` [Example 7-22, 6,7-dimethoxy-3-methyl-2-[4-(4-quinolin-2-ylpiperazin-1-yl)butyl]-3H-quinazolin-4-one], in that order: 82.4% and 5.3%.
As for `Oc1ccc2ccnc(N3CCN4CCC[C@H]4C3)c2c1` [Production Example 85], the inhibition at 0.1 µM in experiment [1] came out at 99.9%; in experiment [2] it was 98.9%.
Turning to `O=c1c2c(nc(CCCCN3CCN(c4nc5ccccc5s4)CC3)n1Cc1ccccc1)CCCC2` [Example 7-11, 2-[4-(4-benzothiazol-2-ylpiperazin-1-yl)butyl]-3-benzyl-5,6,7,8-tetrahydro-3H-quinazolin-4-one], the inhibition at 0.1 µM is 45% in experiment [1] and 24.7% in experiment [2].
In the case of `CCn1c(CCCCN2CCN(c3ccc4ccccc4n3)CC2)nc2ccccc2c1=O` [Example 7-21, 3-2-[4-(4-quinolin-2-ylpiperazin-1-yl)butyl]-3H-quinazolin-4-one], the inhibition at 0.1 µM in experiment [1] was found to be 97.4%; in experiment [2] it was 95%.
Consider `c1ccc(CO[C@@H]2C[C@H]3CN(c4nccc5sccc45)CCN3C2)cc1` [Production Example 117, 4-((7R,8aS)-7-benzyloxyoctahydropyrrolo[1,2-a]pyrazin-2-yl)thieno-[3,2-c]pyridine], for which the inhibition at 0.1 µM in experiment [1] was determined as 57.7%; in experiment [2], 10.6%.
`CCOC(=O)c1sc2nc(SCCCN3CCN(c4ccc5ccccc5n4)CC3)n(N)c(=O)c2c1C` [Example 1-14, 3-amino-5-methyl-4-oxo-2-[3-(4-quinolin-2-ylpiperazin-1-yl)-propylthio]-3,4-dihydrothieno[2,3-d]pyrimidine-6-carboxylic acid ethyl ester]: the inhibition at 0.1 µM in experiment [1] was found to be 99.8%; in experiment [2], 95.9%.
Regarding `Fc1ccc(COc2ccc3ccnc(N4CCNCC4)c3c2)cc1` [Production Example 98, 7-(4-fluorobenzyloxy)-1-piperazin-1-ylisoquinoline], the inhibition at 0.1 µM in experiment [1] was found to be 88.2%; in experiment [2], 60.8%.
In the same order, the values of `CCn1c(CCCCN2CCN(c3ccc4ccccc4n3)CC2)nc2c(c1=O)CC(C)CC2` (centres unmarked) [Example 7-13, 3-ethyl-6-methyl-2-[4-(4-quinolin-2-ylpiperazin-1-yl)butyl]-5,6,7,8-tetrahydro-3H-quinazolin-4-one] are 90.2% and 93.6%.
For `CN1CCN(c2nccc3cccnc23)CC1` [Production Example 23, 8-(4-methylpiperazin-1yl)[1,7]naphthyridine], in that order: 83.2% and 85.8%.
In the same order, the values of `CC1CCc2nc(CCCCN3CCN(c4ccc5ccccc5n4)CC3)n(C)c(=O)c2C1` (centres unmarked) [Example 7-12, 3,6-dimethyl-2-[4-(4-quinolin-2-ylpiperazin-1-yl)butyl]-5,6,7,8-tetrahydro-3H-quinazolin-4-one] are 96% and 93.2%.
As for `Brc1ccc2ccnc(N3CCNCC3)c2c1` [Production Example 30, 7-bromo-1-piperazin-1-ylisoquinoline], the inhibition at 0.1 µM in experiment [1] amounted to 92.8%; in experiment [2] it was 93.4%.
In the same order, the values of `O[C@@H]1C[C@H]2CN(c3nccc4ccsc34)CCN2C1` [Production Example 112, 7-((7R,8aS)-7-hydroxyoctahydropyrrolo[1,2-a]pyrazin-2-yl)thieno-[2,3-c]pyridine] are 53.9% and 98.8%.
For `COc1ccc2ccnc(N3CCN(C)CC3)c2c1` [Production Example 32, 7-methoxy-1-(4-methylpiperazin-1-yl)isoquinoline], the inhibition at 0.1 µM amounted to 91.7% in experiment [1] and 94.4% in experiment [2].
In the same order, the values of `COc1ccc2c(C)cnc(N3CCNCC3)c2c1` [Production Example 28, 7-methoxy-4-methyl-1-piperazin-1-ylisoquinoline] are 23.9% and 92.5%.
In the same order, the values of `COc1ccc2ccnc(N3CCN4CCCCC4C3)c2c1` (centres unmarked) [Production Example 81, 7-methoxy-1-octahydropyrido[1,2-a]pyrazin-2-ylisoquinoline] are 95.8% and 74.4%.
Take `Cn1c(CCCCN2CCN(c3ccc4ccccc4n3)CC2)nc2ccc(Cl)cc2c1=O` [Example 7-25, 6-chloro-3-methyl-2-[4-(4-quinolin-2-ylpiperazin-1-yl)butyl]-3H-quinazolin-4-one]: the inhibition at 0.1 µM in experiment [1] came out at 97.5%; in experiment [2], 99.7%.
For `c1cc2ccoc2c(N2CCN3CCC[C@@H]3C2)n1` [Production Example 110, 7-((8aR)-octahydropyrrolo[1,2-a]pyrazin-2-yl)furo[2,3-c]pyridine], in that order: 98.9% and 97.9%.
In the same order, the values of `Cc1cc2c(N3CCNCC3)nccc2o1` [Production Example 25, 2-methylpiperazin-1-ylfuro[3,2-c]pyridine] are 83.2% and 65.5%.
For `O[C@@H]1C[C@H]2CN(c3nccc4ccoc34)CCN2C1` [Production Example 111, 7-((7R,8aS)-7-hydroxyoctahydropyrrolo[1,2-a]pyrazin-2-yl)furo[2,3-c]-pyridine], in that order: 48% and 95.5%.
Take `c1cc2occc2c(N2CCN3CCC[C@@H]3C2)n1` [Production Example 113, 4-((8aR)-octahydropyrrolo[1,2-a]pyrazin-2-yl)furo[3,2-c]pyridine]: the inhibition at 0.1 µM in experiment [1] came out at 56.4%; in experiment [2], 82.4%.
For `Nn1c(CCCCN2CCN(c3ccc4ccccc4n3)CC2)nc2c(c1=O)CCCCC2` [Example 4-42, 3-amino-2-[4-(4-quinolin-2-ylpiperazin-1-yl)butyl]-5,6,7,8,9-pentahydro-3H-cyclohepta[d]pyrimidin-4-one], in that order: 95.8% and 58.5%.
With `Cc1cc(N2CCN(CCCSc3nc4sc5c(c4c(=O)n3N)CCCC5)CC2)nc2ccccc12` [Example 1-33], the “Percent Inhibition (%) on Each Receptor's Binding at 10^−7M, 5-HT1A” value in experiment [1] is given as 94.0%. Also, the “Percent Inhibition (%) on Each Receptor's Binding at 10^−7M, 5-HT3” value in experiment [2] came to 94.2%.
Take `CC1CCc2nc(CCCCN3CCN(c4ccc5ccccc5n4)CC3)n(N)c(=O)c2C1` (centres unmarked) [Example 4-60, 3-amino-6-methyl-2-[4-(4-quinolin-2-ylpiperazin-1-yl)butyl]-5,6,7,8-tetrahydro-3H-quinazolin-4-one]: the figures for the inhibition at 0.1 µM in experiment [1] and in experiment [2] were 96.9% and 91.5%, respectively.

Broadly, the inhibition is the change of the read-out against control, counted positive when it falls.
